Laboratory results reported in patent US11779628B2, “Use of cell-permeable peptide inhibitors of the JNK signal transduction pathway for the treatment of various diseases” (Xigen Inflammation Ltd., priority 2014, dated 2023).

What was measured:
[1] = test system: gerbil, transient global ischemia; details: Carboni et al. 2004; cited from earlier work
[2] = test system: primary embryonic cultures and differentiated PC12 cells; details: after trophic withdrawal; cited from earlier work
Sprague-Dawley rats, STZ = experiment: Rat model of diabetic nephropathy (STZ, high fat diet); assay type: in vivo; details: XG-102 1, 2, 4 mg/kg iv weekly; Losartan 25 mg/kg po daily; 9 weeks
Description: Losartan has been used as a positive control. Seventy-four male Sprague-Dawley rats (200-250 g; including 4 spare animals) from Charles River (Margate, Kent) were used. […] The diet has been purchased from Research Diets, New Jersey, USA. […] Animals have been housed in pairs throughout the study. […] During the third week of habituation, a blood sample has been taken from the lateral tail vein in the freely fed state using a hand-held glucose meter (One Touch Ultra 2). Blood sampling began at approximately 09:00. […] About 40 animals have been assigned to Cohort A and the remaining 30 to Cohort B, balanced as far as possible for body weight, plasma glucose and food and water intake. […] For the 7-day period post STZ dose, animals have been weighed daily and food and water intake determined twice weekly. For the remaining study duration, animals have been weighed and water and food intake assessed twice weekly (always on the day of intravenous dosing and typically on water refill day(s)). […] Animals have been weighed prior to dosing (this weight was recorded). Food and water have been recorded on the same days as the intravenous groups (A-E) only. […] Creatinine, glucose, urea, total protein and electrolytes (Na, K, Cl and Ca) have been determined on urine samples using a COBAS […] and associated reagents (n=2 for all urine analyses). […] Food consumed and water drunk has also been calculated. […]

## N#CC(c1ccnc(NCCc2cccnc2)n1)c1nc2ccccc2s1 (stereo not drawn) [AS601245]
[1]
  delayed loss of hippocampal CA1 neurons: provided significant protection against the delayed loss of hippocampal CA1 neurons

## CCSCc1ccc2c(c1)c1c3c(c4c5cc(CSCC)ccc5n5c4c1n2[C@H]1C[C@](O)(C(=O)OC)[C@]5(C)O1)CNC3=O [CEP-1347]
[2]
  neuronal survival: promotes neuronal survival at dosages that inhibit activation of the c-Jun amino-terminal kinases (JNKs)

## CCCCc1nc(Cl)c(CO)n1Cc1ccc(-c2ccccc2-c2nn[nH]n2)cc1 [Losartan]
Sprague-Dawley rats, STZ
  body weight: has been significantly lower
